How the values were obtained:
DIO mice = test: Indirect calorimetry test (energy expenditure, RER) in established DIO mice; type: in vivo, C57BL/6J mice; conditions: 10 mg/kg
Description: To evaluate the effect on daily EE, DIO mice fed a HFD that has 41% kcal from fat and contains no AA (D12079B; Research diets, Inc., see S1 Table for fatty acids composition) for 50 weeks were used. At 55 weeks of age, DIO mice were divided into two weight-matched groups (7 animals per group) and treated with vehicle or 10 mg/kg compound-326 for 11 weeks. […] Indirect calorimetry test was performed on day1, 8, 15, 21, and 56 during the study. Daily EE was analyzed using ANCOVA with body mass as covariate. After the treatment period, mice were sacrificed and fat tissues were harvested to evaluate the weights.
Energy metabolism was evaluated using an Oxymax indirect calorimetry system (Columbus Instruments, Columbus, OH). Mice were individually housed in the chamber with a 12-h light/dark cycle. VO2 and VCO2 rates were determined with the following Oxymax system settings: air flow, 0.6 L/min; sample flow, 0.5 l/min; settling time, 10 min; and measuring time, 1 min. The system was calibrated against a standard gas mixture to measure O2 consumed (VO2, mL/kg/h) and CO2 generated (VCO2, mL/kg/h). Metabolic rate (VO2) and respiratory exchange ratio (RER; ratio of VCO2/VO2) were evaluated over a 24-h period. Energy expenditure was calculated as the product of the calorific value of oxygen (3.815+1.232×RER) and the volume of O2 consumed.

fat tissues of DIO mice = test: RT-qPCR gene expression in epididymal and subcutaneous fat of DIO mice after 6-week treatment; type: in vivo, C57BL/6J mice; conditions: 10 mg/kg, 6 weeks
Description: Mice fed a HFD that has 41% kcal from fat and contains no AA (D12079B; Research diets, Inc.) from 5 weeks of age were divided into 2 groups at the age of 8 weeks (8 animals per group), and were administered 10 mg/kg compound-326 or vehicle for 6 weeks. After the treatment period, mice were sacrificed and epididymal and subcutaneous fats were harvested for mRNA analysis. Nine animals maintained on a standard chow (CE2, CLEA Japan, Osaka) were used as control.
Total RNA was extracted and purified using RNeasy Mini Kit (QIAGEN, USA). First-strand cDNA was synthesized using High Capacity cDNA Reverse Transcription Kits (Thermo Fisher, USA). The mRNA levels were quantified by an ABI Prism 7900 TaqMan PCR system (Thermo Fisher, USA) according to the manufacturer’s instruction using TaqMan® Universal PCR Mastermix with the primer-probe sets of TaqMan Gene Expression Assays (Thermo Fisher, USA) for the following genes: Ccl2 (chemokine (C-C motif) ligand 2; Mm99999056_m1), Cd68 (CD68 antigen; Mm03047343_m1), Adgre1 (adhesion G protein-coupled receptor E1; Mm00802529_m1), Tnf (tumor necrosis factor; Mm00443258_m1), Il6 (interleukin 6; Mm99999064), Lep (leptin; Mm00434759_m1), Adipoq (adiponectin; Mm00456425_m1), Fads2 ([…]; Mm00517221_m1), Fads1 ([…]; Mm00507605_m1), Ucp1 (uncoupling protein 1; Mm00494069_m1), Elovl3 (elongation of very long chain fatty acids 3; Mm00468164_m1), Cidea (cell death-inducing DNA fragmentation factor, alpha subunit-like effector A; Mm00432554_m1), Otop1 (otopetrin 1; Mm00554705_m1), and Rplp0 (ribosomal protein, large, P0; forward; 5'-[…]-3', reverse; 5'-[…]-3', probe (VIC-5'→3'-TAMRA); 5'-[…]-3'). The Rplp0 mRNA level was used as a reference and relative transcript levels were calculated with the comparative Ct method (2^-ΔΔCT) (Applied Bio-systems).

## O=C1Cc2c(nc(OCC(F)(F)C(F)(F)F)n(-c3ccc(OCC(F)(F)F)cc3)c2=O)N1 [Compound-326, 2-(2,2,3,3,3-Pentafluoropropoxy)-3-[4-(2,2,2-trifluoroethoxy)phenyl]-5,7-dihydro-3H-pyrrolo[2,3-d]pyrimidine-4,6-dione]
DIO mice; day 15, independent of decreased BW
  daily EE relative to body mass: increased
DIO mice; days 1 and 8, vs vehicle
  daily EE (kcal/day) plotted against body mass: no difference
DIO mice; days 21 and 56
  difference in daily EE lines vs vehicle: became more apparent
DIO mice; relative to vehicle through the study, did not reach significance
  RER: lower
Fat tissues of DIO mice
  D5D mRNA expression in epididymal fat: upregulated
  D6D mRNA expression in epididymal fat: upregulated
  beige fat cell-selective genes, including Ucp1, Cidea, Elovl3, and Otop1, in subcutaneous fat: no induction
  epididymal Lep mRNA: decreased
Fat tissues of DIO mice; did not reach statistical difference (p = 0.08)
  epididymal Adipoq mRNA: decreased
Fat tissues of DIO mice; did not reach statistical significance (p = 0.08)
  Lep mRNA in subcutaneous fat: decrease
Fat tissues of DIO mice; not significant
  Adgre1 expression in epididymal fat: decreased
  Cd68 expression in epididymal fat: decreased
Fat tissues of DIO mice; significant effect
  Ccl2 expression in epididymal fat: decreased

Source: paper PMC5104425, “A Novel Selective Inhibitor of Delta-5 Desaturase Lowers Insulin Resistance and Reduces Body Weight in Diet-Induced Obese C57BL/6J Mice” (PLoS ONE, 2016)
